The values below come from paper PMC8715119, “Second-generation non-hematopoietic erythropoietin-derived peptide for neuroprotection” (Redox Biology, 2021).

The subject of one experiment is mouse ischemic model. Description: Middle cerebral artery occlusion (MCAO) and reperfusion, TTC staining of brain. In kind it is in vivo. As to conditions: MCAO 90 min, 24 h reperfusion, intravenous reEPO 2000 IU/kg (n = 4). The text has this: The protocol of this experiment was approved by the Animal Care and Use Committee of the Keimyung University School of Medicine. After 1 week of acclimatization, mice were anesthetized with 3% isoflurane in a mixture of 70% N2O and 30% O2, and the anesthesia was maintained with 1.5–2.0% isoflurane. After the neck skin incision, the bifurcation of the common carotid artery was exposed. The external carotid artery was ligated, and the internal carotid artery was carefully isolated from the vagus nerve. A microvascular clip was placed across the right common carotid artery. Through the external carotid stump, a 7–0 surgical nylon monofilament with silicon coat was advanced into the right internal carotid artery up to the origin of the middle cerebral artery. […] During the surgery, rectal temperature was monitored and maintained at 37 ± 0.5 °C with a feedback-controlled heating pad (CMA 150, Stockholm, Sweden). […]
The brain was rapidly dissected out and coronally sliced into 2-mm-thick sections. […] The infarct volumes of the TTC-stained brain sections were imaged with a digital camera and analyzed. Using NIH ImageJ software (NIH, USA), the intensity of TTC in MCAO- and no-MCAO-performed hemispheres were digitally measured, and the ratio (MCAO versus non-MCAO) was presented as a percentage.

The subject of a further experiment is HT-22 cells. Briefly: ROS level by H2DCFDA after hypoxia and re-oxygenation. In kind it is cell-based, mouse. As to conditions: reEPO 0.5 IU/ml, ML1-h3 1 ng/ml, n = 12. The method, then:
HT-22 cells (kindly provided by Prof. Gil-Saeng Jeong in Keimyung University), an immortalized mouse hippocampal cell line, were cultured at 37°C and 5% CO2 in Dulbecco's modified eagle medium (DMEM, Invitrogen, USA) supplemented with 10% FBS and 1% penicillin/streptomycin at 37°C and 5% CO2.
The cellular ROS level was measured using 2′,7′-dichlorodihydrofluorescein diacetate (H2DCFDA) (#D399, Invitrogen, USA). The cells were incubated with 5 μM H2DCFDA in PBS for 30 min, washed with PBS, and then resuspended in the medium for 2 h. After treatment of H2O2 without or with reEPO, or peptide, we monitored the oxidative stress by measuring the fluorescence intensities of H2DCFDA by using excitation and emission wavelengths of 485 nm and 535 nm, respectively.
The HT-22 cells were seeded onto 96-well or 6-well plates. The next day, HT-22 cells were placed inside a sealed air-tight container consisting of an anaeropack (Mitsubishi Gas Company, Tokyo, Japan), which can induce a hypoxic atmosphere by absorbing oxygen and generating carbon dioxide. The cells were maintained in the hypoxic condition at 37°C for 18 h and re-oxygenated for 3 h at 37°C and 5% CO2. Subsequently, the cells were treated with reEPO or the peptides for 19 h before viability analysis.

Consider “reEPO: Recombinant human EPO (Epoetin-α, CJ HealthCare Corporation)”, for which, in the experiment with mouse ischemic model, the “TTC staining in MCAO-performed versus contralateral side (brain injury)” value is listed as “inhibited extinction of TTC-staining in MCAO-performed side”. Further, the “ROS level induced by H/R” value in the experiment with HT-22 cells is “decreased ROS level induced by H/R”.
